Data reported in patent publication US20220387429A1, “USE OF IMIDAZOPYRIMIDINE OR IMIDAZOTRIAZINE COMPOUND FOR PREVENTION, ALLEVIATION, OR TREATMENT OF DEVELOPMENTAL DISABILITY” (SK BIOPHARMACEUTICALS CO., LTD., priority 2019, published 2022).

Legend:
[1] = system: Wild-type mice; experiment: Audiogenic seizure test in wild-type mice; assay type: in vivo, mouse; conditions: 2 mg/kg intraperitoneally twice a day for 6 weeks
Protocol: [The source words this procedure for another variant and reports this variant under the same test.] (§1) Male Fmr1 C57BL/6J knock-out mice derived from the early group imported from Jackson Laboratories were used in the experiments. The experimental animals were raised in a light-controlled environment (illuminated for 12 hours/nonilluminated for 12 hours) and maintained at a temperature of 21° C.±2° C. and a relative humidity of about 55%±5%. Food and water were ad libitum fed. An anticonvulsant efficacy experiment on audiogenic seizure, a contextual fear conditioning experiment, an open field test, and a marble burying test in the Fmr1 gene knockout mouse model was performed by Fragile X Syndrome Drug Validation Initiative (FRAXA-DVI). The mice were randomly divided into groups and the test was performed under illumination.
(§2) The test compound was dissolved in 10% DMSO (dimethylsulfoxide)+30% PEG 300 in DW (distilled water), and administered intraperitoneally at a dose of 2 mg/kg twice a day for 6 weeks. To a control group, vehicle (10% DMSO (dimethylsulfoxide)+30% PEG 300 in DW (distilled water)) was administered.
(§3) Ten mice per group were used.
(§4) After the vehicle or test compound was administered intraperitoneally at a dose of 2 mg/kg twice a day for 6 weeks, the mice were placed in a chamber and exposed to an alarm. The response of the mice during the test was evaluated numerically by the following criteria according to the intensity of seizure, and the survival rate was also observed.
(§5) 1: Wild running and jumping

[2] = system: Fmr1 gene knockout mouse model; experiment: Marble burying test; assay type: in vivo; conditions: Fmr1 gene knockout mice; 2 mg/kg intraperitoneally twice a day for 6 weeks; versus vehicle-administered knockout group
Source text: (§6) An Fmr1 gene knockout mouse model was used as an animal model of fragile X syndrome. This model lacks FMRP protein due to disruption of the Fmr1 gene. Typical phenotypes of this mouse model include audiogenic seizure, hyperlocomotor activity, cognitive deficit, concentration deficit disorder, and the like.
as §1, with “The mice were randomly divided into groups and the test was performed under illumination.” left out
After the vehicle or test compound was administered intraperitoneally at a dose of 2 mg/kg twice a day for 6 weeks, a hippocampal function-dependent marble burying test was performed. […] The mouse was placed and left for 30 minutes, then the number of marbles buried by the mouse was counted.
(§7) After data analysis by ANOVA, the effect was defined as significant when p<0.05. All results were expressed as mean±SEM.

[3] = system: Fmr1 gene knockout mouse model; experiment: Audiogenic seizure test, anticonvulsant efficacy; assay type: in vivo; conditions: Fmr1 gene knockout mice, 2 mg/kg intraperitoneally twice a day for 6 weeks
Source text: as §6, §1, §2, §3, §4, §5

[4] = system: Fmr1 gene knockout mouse model; experiment: Contextual fear conditioning experiment; assay type: in vivo; conditions: Fmr1 gene knockout mice; 2 mg/kg intraperitoneally twice a day for 6 weeks; versus vehicle-administered knockout group
Source text: as §6, §1
The test compound was dissolved in 10% DMSO (dimethylsulfoxide)+30% PEG 300 in DW (distilled water), and administered intraperitoneally at a dose of 2 mg/kg twice a day for 6 weeks. […]
as §7

[5] = system: Fmr1 gene knockout mouse model; experiment: Open field test; assay type: in vivo; conditions: Fmr1 gene knockout mice; 2 mg/kg intraperitoneally twice a day for 6 weeks; versus wild-type mice, P value of 0.0001 or less
Source text: as §6
Male Fmr1 C57BL/6J knock-out mice derived from the early group imported from Jackson Laboratories were used in the experiments. The experimental animals were raised in a light-controlled environment (illuminated for 12 hours/nonilluminated for 12 hours) and maintained at a temperature of 21° C.±2° C. and a relative humidity of about 55%±5%. Food and water were ad libitum fed. […]
After the vehicle or test compound was administered intraperitoneally at a dose of 2 mg/kg twice a day for 6 weeks, an open field test was performed to observe the efficacy behavior of mice who fearlessly stepped out to the center of the open field. […] The number of times the mouse crossed the center of the open field was measured by the breakage of the horizontal beam due to the mouse's movement. […]
as §7

Fc1ccc(-c2cnc3nc(COc4ccccn4)cn3c2)c(C(F)(F)F)c1 [test compound, 6-[4-fluoro-2-(trifluoromethyl)phenyl]-2-(2-pyridyloxymethyl)imidazo[1,2-a]pyrimidine]
Audiogenic seizure phenotype [1]: no mice showed audiogenic seizure phenotype | Seizures of 3 or more points ([1]; mice affected/mice in group): 0/10 | Wild running ([1]; mice affected/mice in group): 0/10 | Vulnerability to audiogenic seizure ([1]; proportion of wild running mice): 0% | Survival rate ([1]; survivors/mice in group): 10/10 | Number of marbles buried (FIG. 3) [2]: increased compared to that in the vehicle-administered group of Fmr1 gene knockout mice | Seizures of 3 or more points ([3]; mice affected/mice in group): 5/10 | Wild running ([3]; mice affected/mice in group): 6/10 | Vulnerability to audiogenic seizure ([3]; proportion of wild running mice, vehicle group 90%, 2 mg/kg): 60% | Survival rate ([3]; survivors/mice in group): 5/10 | Freezing behavior (contextual fear conditioning, FIG. 1) [4]: significantly increased freezing behavior compared to the vehicle-administered group | Number of times the mouse crossed the center (open field, FIG. 2) [5]: significant increase in movement compared to the wild-type mice
